Laboratory results as given in patent US20090181889A1, “COMPOSITIONS AND METHODS FOR DETECTION AND TREATMENT OF HUMAN HERPESVIRUS (HHV)-6” (priority 2006, published 2009).

Columns and labels:
[1] = test system: human μ, δ, or κ opioid receptor; assay: [35S]GTPγS binding to control CHO cell membranes with opioid receptors; type: biochemical; details: CHO cells stably transfected with human μ, Emax obtained at opioid concentration less than 1 μM
[2] = test system: wild-type 293 cells (HEK 293 cell membranes); assay: [35S]GTPγS binding to native (wild-type) HEK293 cell membranes; type: biochemical, human; details: binding without compound = 100%, three experiments
HHV-6B U51 [3] = target: T1, HHV-6B U51 (Human herpesvirus 6B, UniProt P52542); type: biochemical; details: HHV-6B U51 HEK293 membranes; for % Control [35S]GTPγS binding ± SEM, U51 (+Tet): induced with 1 μg/ml tetracycline 24 h; for % Control [35S]GTPγS binding ± SEM, U51 (Unind): no tetracycline (uninduced)
[4] = test system: herpesviruses serine proteases; details: cited from earlier work
HHV-6B U51 [5] = target: T1, HHV-6B U51; type: binding
U51 = target: T2, U51 (Human herpesvirus 6A, UniProt P52382); details: Fitzsimons C P, et al. 2005; cited from earlier work
T2 sequence (P52382 1-301): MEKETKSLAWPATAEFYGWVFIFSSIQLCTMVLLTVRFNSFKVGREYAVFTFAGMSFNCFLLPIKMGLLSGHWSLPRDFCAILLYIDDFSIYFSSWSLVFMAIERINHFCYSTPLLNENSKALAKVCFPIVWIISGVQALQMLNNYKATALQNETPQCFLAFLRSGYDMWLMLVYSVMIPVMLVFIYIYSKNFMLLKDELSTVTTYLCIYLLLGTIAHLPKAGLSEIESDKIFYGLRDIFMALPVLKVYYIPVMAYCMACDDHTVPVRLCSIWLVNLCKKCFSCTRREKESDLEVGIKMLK

HHV-6B U51 [6] = target: T3, HHV-6B U51 (Human herpesvirus 6B, UniProt P52542); type: biochemical; details: HHV-6B U51 HEK293 membranes; for % Control [35S]GTPγS binding ± SEM, U51 (+Tet): induced with 1 μg/ml tetracycline 24 h; for % Control [35S]GTPγS binding ± SEM, U51 (Unind): no tetracycline (uninduced); remark: listed apart in the source
T3 sequence (P52542 whole entry, looked up): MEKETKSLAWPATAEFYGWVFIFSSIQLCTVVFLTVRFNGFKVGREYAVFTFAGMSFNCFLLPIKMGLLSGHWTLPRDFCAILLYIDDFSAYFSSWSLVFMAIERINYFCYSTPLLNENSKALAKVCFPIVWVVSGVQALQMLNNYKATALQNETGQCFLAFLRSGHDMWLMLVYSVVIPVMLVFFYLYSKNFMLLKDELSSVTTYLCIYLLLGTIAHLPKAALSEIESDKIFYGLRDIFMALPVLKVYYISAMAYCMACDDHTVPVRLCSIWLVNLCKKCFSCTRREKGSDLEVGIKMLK

HHV-6 U51 = target: T4, HHV-6 U51 (Human herpesvirus 6A, UniProt P52382); details: Beisser, et al. 1998; cited from earlier work
T4 sequence (P52382 1-301): T2 sequence (P52382 1-301)

HEK293 cells = type: cell-based, human

C[C@@H](NC(=O)[C@@H](N)Cc1ccc(O)cc1)C(=O)NCC(=O)N(C)[C@@H](Cc1ccccc1)C(=O)NCCO [DAMGO]
Control Cell Emax, % Control [35S]GTPγS binding ± SEM [1]: 216 ± 4.4% | % Control [35S]GTPγS binding ± SEM, Native [2]: 106 ± 4% | % Control [35S]GTPγS binding ± SEM, U51 (+Tet) (HHV-6B U51 [3]): 86 ± 6% | % Control [35S]GTPγS binding ± SEM, U51 (Unind) (HHV-6B U51 [3]): 96 ± 3%

CC(C)[C@H](NC(=O)[C@H](CCC(=O)O)NC(=O)[C@H](Cc1ccccc1)NC(=O)[C@@H](C)NC(=O)[C@@H](N)Cc1ccc(O)cc1)C(=O)N[C@H](C(=O)NCC(N)=O)C(C)C [Deltorphin II]
% Control [35S]GTPγS binding ± SEM, U51 (+Tet) (HHV-6B U51 [3]): 91 ± 6% | % Control [35S]GTPγS binding ± SEM, U51 (Unind) (HHV-6B U51 [3]): 98 ± 2%

CN1CC[C@]23c4c5ccc(O)c4O[C@H]2[C@@H](O)C=C[C@H]3[C@H]1C5 [Morphine, morphine]
% Control [35S]GTPγS binding ± SEM, Native [2]: 99 ± 9% | % Control [35S]GTPγS binding ± SEM, U51 (+Tet) (HHV-6B U51 [3]): 91 ± 9% | % Control [35S]GTPγS binding ± SEM, U51 (Unind) (HHV-6B U51 [3]): 99 ± 0.9%

Oc1ccc2c3c1O[C@H]1c4[nH]c5ccccc5c4C[C@@]4(O)[C@@H](C2)N(CC2CC2)CC[C@]314 [Naltrindole, naltrindole]
% Control [35S]GTPγS binding ± SEM, Native [2]: 96 ± 4% | % Control [35S]GTPγS binding ± SEM, U51 (+Tet) (HHV-6B U51 [3]): 97 ± 4% | % Control [35S]GTPγS binding ± SEM, U51 (Unind) (HHV-6B U51 [3]): 98 ± 4%

O=S(=O)(F)Cc1ccccc1 [PMSF, phenylmethylsulphonyi fluoride]
inhibition of herpesvirus serine proteases [4]: weakly inhibited

C[C@@H](NC(=O)[C@@H](N)Cc1ccc(O)cc1)C(=O)NCC(=O)N(C)[C@@H](Cc1ccccc1)C(=O)NCCO [[^3H]DAMGO]
specific binding of radiolabelled opioid to HHV-6B U51 membranes (HHV-6B U51 [5]): did not specifically bind

CCC12CCN(CC3(O)CC3)C(Cc3ccc(O)cc31)C2(C)C (centres unmarked) [[^3H]bremazocine]
specific binding of radiolabelled opioid to HHV-6B U51 membranes (HHV-6B U51 [5]): did not specifically bind

Oc1ccc2c3c1O[C@H]1c4[nH]c5ccccc5c4C[C@@]4(O)[C@@H](C2)N(CC2CC2)CC[C@]314 [[^3H]naltrindole]
specific binding of radiolabelled opioid to HHV-6B U51 membranes (HHV-6B U51 [5]): did not specifically bind

CCL2: chemokine
action at U51 (U51): agonists

CCL11: chemokine
action at U51 (U51): agonists

DPDPE
Control Cell Emax, % Control [35S]GTPγS binding ± SEM [1]: 254 ± 16% | % Control [35S]GTPγS binding ± SEM, Native [2]: 104 ± 1% | % Control [35S]GTPγS binding ± SEM, U51 (+Tet) (HHV-6B U51 [3]): 99 ± 2% | % Control [35S]GTPγS binding ± SEM, U51 (Unind) (HHV-6B U51 [3]): 96 ± 1%

Interleukin-8: chemokine ligand
% Control [35S]GTPγS binding ± SEM, Native [2]: 101 ± 5% | % Control [35S]GTPγS binding ± SEM, U51 (+Tet) (HHV-6B U51 [6]): 96 ± 3% | % Control [35S]GTPγS binding ± SEM, U51 (Unind) (HHV-6B U51 [6]): 96 ± 2%

MCP-3: chemokine ligand
% Control [35S]GTPγS binding ± SEM, Native [2]: 97 ± 3% | % Control [35S]GTPγS binding ± SEM, U51 (+Tet) (HHV-6B U51 [6]): 103 ± 2% | % Control [35S]GTPγS binding ± SEM, U51 (Unind) (HHV-6B U51 [6]): 109 ± 9%

RANTES: β-chemokine (CC-chemokine)
% Control [35S]GTPγS binding ± SEM, Native [2]: 101 ± 2% | binding affinity to HHV-6 U51 (HHV-6 U51): nanomolar affinity | % Control [35S]GTPγS binding ± SEM, U51 (+Tet) (HHV-6B U51 [6]): 104 ± 2% | % Control [35S]GTPγS binding ± SEM, U51 (Unind) (HHV-6B U51 [6]): 111 ± 1% | action at U51 (U51): agonists

US28: human cytomegalovirus 7-transmembrane protein, expressed from plasmid as positive control
cell fusion activity compared to cells transfected with VSV-G alone (HEK293 cells): ~3 fold

kappa opioid receptor: rat kappa opioid receptor expression plasmid, negative control
cell fusion activity compared to cells transfected with VSV-G alone (HEK293 cells): no effect

B1: Lymphotactin: chemokine ligand (protein)
chain: VGSEVSDKRTCVSLTTQRLPVSRIKTYTITEGSLRAVIFITKRGLKVCADPQATWVRDVVRSMDRKSNTRNNMIQTKPTGTQQSTNTAVTLTG
% Control [35S]GTPγS binding ± SEM, Native [2]: 97 ± 2% | % Control [35S]GTPγS binding ± SEM, U51 (+Tet) (HHV-6B U51 [6]): 104 ± 7% | % Control [35S]GTPγS binding ± SEM, U51 (Unind) (HHV-6B U51 [6]): 99 ± 3%
